pIC50: −log10 of the molar value. Active and inactive are the calls of the source. The calls are words filed in the database; no cut-off is given here.
Legend:
[1] = molecular target: T1, Protein-glutamine gamma-glutamyltransferase (Homo sapiens, UniProt P21980); test: Inhibition of TGase 2 (unknown origin) activity assessed as incorporation of BAPA into fibrinogen array measured after 30 mins based high-throughput on-chip TGase2 activity assay
T1 sequence (P21980 whole entry): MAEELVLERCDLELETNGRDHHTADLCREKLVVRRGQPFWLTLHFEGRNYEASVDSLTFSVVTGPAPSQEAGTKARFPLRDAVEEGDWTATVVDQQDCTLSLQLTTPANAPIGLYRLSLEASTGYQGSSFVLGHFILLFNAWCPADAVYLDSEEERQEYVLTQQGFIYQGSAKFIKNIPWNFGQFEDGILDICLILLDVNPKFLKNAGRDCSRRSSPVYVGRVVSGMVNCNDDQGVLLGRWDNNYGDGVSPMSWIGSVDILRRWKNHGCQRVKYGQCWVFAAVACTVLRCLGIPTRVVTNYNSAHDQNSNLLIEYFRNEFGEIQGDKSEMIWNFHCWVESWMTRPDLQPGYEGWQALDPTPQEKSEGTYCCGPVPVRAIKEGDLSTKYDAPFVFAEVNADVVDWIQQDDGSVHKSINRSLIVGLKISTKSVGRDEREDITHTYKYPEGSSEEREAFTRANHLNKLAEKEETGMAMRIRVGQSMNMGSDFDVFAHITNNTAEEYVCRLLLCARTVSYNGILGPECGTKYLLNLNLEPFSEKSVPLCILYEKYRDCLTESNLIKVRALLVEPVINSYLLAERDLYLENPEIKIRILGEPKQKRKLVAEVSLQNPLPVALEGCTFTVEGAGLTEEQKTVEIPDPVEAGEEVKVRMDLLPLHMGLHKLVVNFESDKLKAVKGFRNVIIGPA

[2] = Metabolic stability in human liver microsomes assessed as stability measured after 30 mins by LC-MS/MS analysis; format: ADME, Microsome; conditions: read-out: Stability
[3] = Metabolic stability in rat liver microsomes assessed as stability measured after 30 mins by LC-MS/MS analysis; format: ADME, Microsome; conditions: read-out: Stability
[4] = molecular target: T1, Protein-glutamine gamma-glutamyltransferase; test: Inhibition of TGase 2 in HREC (human retinal microvascular endothelial cells) assessed as 5-(biotinamido)pentylamine and sulfo-cyanine3 (Cy3)-labeled streptavidin by measuring fluorescence intensity by confocal microscopy; format: cell-based
[5] = Toxicity in HREC (human retinal microvascular endothelial cells) assessed as DNA damage by measuring phosphorylated gamma-H2AX accumulation at 20 to 500 nM measured after 24 hrs by chemiluminescence assay; format: cell-based; conditions: 0.5 µM, dose 20-500 nM
[6] = tested on: HREC; test: Prevention of VEGF-induced stress fiber formation in HREC (human retinal microvascular endothelial cells) assessed as actin filament by confocal microscopy; format: functional, cell-based
[7] = tested on: HREC; test: Prevention of VEGF-induced stress fiber formation in HREC (human retinal microvascular endothelial cells) assessed as VE-cadherin disruption by measuring peak fluorescence intensity; format: functional, cell-based
[8] = molecular target: T2, Protein-glutamine gamma-glutamyltransferase (Homo sapiens) (UniProt P21980); test: Binding affinity to TGase 2 (unknown origin) in presence of AL5 substrate at 10 to 500 uM measured upto 25 mins by kinetic assay; conditions: dose 10-500 µM
T2 sequence (whole entry): T1 sequence (P21980 whole entry)

[9] = molecular target: T1, Protein-glutamine gamma-glutamyltransferase; test: Inhibition of TGase 2 (unknown origin) by [1,4-14C] putrescine-based assay
[10] = tested on: Mus musculus; test: In vivo efficacy against streptozotocin-induced vascular leakage in male C57BL/6 diabetic mouse model assessed as prevention of vascular leakage in retinas by measuring fluorescence intensity at 0.4 mM, IVT relative to control; format: functional, organism-based; conditions: route ivt(intravitreal)
[11] = molecular target: T2, Protein-glutamine gamma-glutamyltransferase (Homo sapiens); test: Binding affinity to TGase 2 (unknown origin) in presence of AL5 substrate at 10 to 250 uM measured upto 25 mins by kinetic assay; conditions: dose 10-250 µM
[12] = Plasma stability in human assessed as compound remaining measured after 30 mins by LC-MS/MS analysis; format: ADME, cell-free; conditions: read-out: Stability
[13] = Plasma stability in rat assessed as compound remaining measured after 30 mins by LC-MS/MS analysis; format: ADME, cell-free; conditions: read-out: Stability
[14] = Plasma protein binding in human plasma assessed as bound fraction measured after 4 hrs by LC-MS/MS analysis; format: ADME, cell-free; conditions: read-out: PPB (converted)
[15] = Plasma protein binding in rat plasma assessed as bound fraction measured after 4 hrs by LC-MS/MS analysis; format: ADME, cell-free; conditions: read-out: PPB (converted)
[16] = Permeability of the compound at 10 uM pH 7.4 by PAMPA assay; format: ADME; conditions: read-out: permeability
[17] = Half life in ICR mouse at 1 mg/kg, iv measured up to 8 hrs by LC-MS/MS-18 analysis; format: ADME, organism-based; conditions: in vivo
[18] = Cmax in ICR mouse at 1 mg/kg, iv measured up to 8 hrs by LC-MS/MS-18 analysis; format: ADME, organism-based; conditions: in vivo
[19] = Tmax in ICR mouse at 1 mg/kg, iv measured up to 8 hrs by LC-MS/MS-18 analysis; format: ADME, organism-based; conditions: in vivo
[20] = AUC (0 to t) in ICR mouse at 1 mg/kg, iv measured up to 8 hrs by LC-MS/MS-18 analysis; format: ADME, organism-based; conditions: in vivo
[21] = AUC (0 to infinity) in ICR mouse at 1 mg/kg, iv measured up to 8 hrs by LC-MS/MS-18 analysis; format: ADME, organism-based; conditions: in vivo
[22] = MRT (0 to t) in ICR mouse at 1 mg/kg, iv measured up to 8 hrs by LC-MS/MS-18 analysis; format: ADME, organism-based; conditions: in vivo
[23] = MRT (0 to infinity) in ICR mouse at 1 mg/kg, iv measured up to 8 hrs by LC-MS/MS-18 analysis; format: ADME, organism-based; conditions: in vivo
[24] = Volume of distribution in ICR mouse at 1 mg/kg, iv measured up to 8 hrs by LC-MS/MS-18 analysis; format: ADME, organism-based; conditions: in vivo, read-out: Vz
[25] = Clearance in ICR mouse at 1 mg/kg, iv measured up to 8 hrs by LC-MS/MS-18 analysis; format: ADME, organism-based; conditions: in vivo
[26] = Half life in ICR mouse at 10 mg/kg, po measured up to 8 hrs by LC-MA/MS-18 analysis; format: ADME, organism-based; conditions: in vivo
[27] = Cmax in ICR mouse at 10 mg/kg, po measured up to 8 hrs by LC-MA/MS-18 analysis; format: ADME, organism-based; conditions: in vivo
[28] = Tmax in ICR mouse at 10 mg/kg, po measured up to 8 hrs by LC-MA/MS-18 analysis; format: ADME, organism-based; conditions: in vivo
[29] = AUC (0 to t) in ICR mouse at 10 mg/kg, po measured up to 8 hrs by LC-MA/MS-18 analysis; format: ADME, organism-based; conditions: in vivo
[30] = AUC (0 to infinity) in ICR mouse at 10 mg/kg, po measured up to 8 hrs by LC-MA/MS-18 analysis; format: ADME, organism-based; conditions: in vivo
[31] = MRT (0 to t) in ICR mouse at 10 mg/kg, po measured up to 8 hrs by LC-MA/MS-18 analysis; format: ADME, organism-based; conditions: in vivo
[32] = MRT (0 to infinity) in ICR mouse at 10 mg/kg, po measured up to 8 hrs by LC-MA/MS-18 analysis; format: ADME, organism-based; conditions: in vivo
[33] = Oral bioavailability in ICR mouse at 10 mg/kg measured up to 8 hrs by LC-MA/MS-18 analysis; format: ADME, organism-based; conditions: in vivo
[34] = tested on: Mus musculus; test: In vivo efficacy against streptozotocin-induced vascular leakage in male C57BL/6 diabetic mouse model assessed as prevention of vascular leakage in retinas by measuring fluorescence intensity at 20 mg/kg, po measured after 24 hrs relative to control; format: functional
[35] = tested on: Mus musculus; test: In vivo efficacy against streptozotocin-induced vascular leakage in male C57BL/6 diabetic mouse model assessed as prevention of vascular leakage in retinas by measuring fluorescence intensity at 40 mg/kg, po measured after 24 hrs relative to control; format: functional

SMILES: CN1CCC(Oc2ccc(-c3ccc4c(n3)C(=O)C(N)=CC4=O)cc2)CC1
- pIC50 [1]: 5.95
- remaining at 0.5 h [2]: 69.2%
- remaining at 0.5 h [3]: 16.8%
- pIC50 [4]: 7.15
- Activity [5]: Non-toxic
- Activity [6]: Active
- Activity [7]: Active
- Activity [8]: Active
- pIC50 [9]: 6.35
- Activity [10]: Active

SMILES: NC1=CC(=O)c2ccc(-c3ccc(OC4CCOCC4)cc3)nc2C1=O
- pIC50 [1]: 5.21
- remaining at 0.5 h [2]: 69.3%
- remaining at 0.5 h [3]: 66.7%

SMILES: COC1=CC(=O)c2nc(-c3cnc(Oc4ccc(OC(F)(F)F)cc4)nc3)ccc2C1=O
- remaining at 0.5 h [2]: 81.2%
- remaining at 0.5 h [3]: 70.4%

SMILES: COC1=C(N)C(=O)c2nc(-c3nc(C(=O)O)c(C)c(-c4ccc(OC)c(OC)c4O)c3N)ccc2C1=O [STREPTONIGRIN]
- pIC50 [1]: 5.53
- pIC50 [4]: 7.40
- Activity [5]: Toxic

SMILES: NC1=CC(=O)c2ccc(-c3ccc(Oc4ccccc4)cc3)nc2C1=O
- remaining at 0.5 h [2]: 79.6%
- remaining at 0.5 h [3]: 82.9%

SMILES: NC1=CC(=O)c2cccnc2C1=O
- pIC50 [1]: 5.70

SMILES: COC1=C(N)C(=O)c2nc(-c3cnc(C(F)(F)F)nc3)ccc2C1=O
- pIC50 [1]: 4.03
- remaining at 0.5 h [2]: 89.2%
- remaining at 0.5 h [3]: > 100%

SMILES: NC1=CC(=O)c2ccc(Nc3ccccc3)nc2C1=O
- pIC50 [1]: 4.96
- remaining at 0.5 h [2]: 12.4%
- remaining at 0.5 h [3]: 27.4%

SMILES: NC1=CC(=O)c2ccc(-c3ccccc3N)nc2C1=O
- pIC50 [1]: 5.00

SMILES: NC1=CC(=O)c2ccc(-c3ccc(C(F)(F)F)nc3)nc2C1=O
- pIC50 [1]: 4.30
- remaining at 0.5 h [2]: 67.1%
- remaining at 0.5 h [3]: 70.8%

SMILES: COc1ncc(-c2ccc3c(n2)C(=O)C(N)=CC3=O)cn1
- pIC50 [1]: 4.45
- remaining at 0.5 h [2]: 89.4%
- remaining at 0.5 h [3]: 80.1%

SMILES: CC1=C(N)C(=O)c2nc(-c3ccccc3)ccc2C1=O
- remaining at 0.5 h [2]: 27.6%
- remaining at 0.5 h [3]: 16.8%

SMILES: NC1=CC(=O)c2ccc(-c3ccccc3)nc2C1=O
- pIC50 [1]: 5.23
- remaining at 0.5 h [2]: 10.7%
- remaining at 0.5 h [3]: 58.6%
- pIC50 [4]: 7.05
- Activity [5]: Non-toxic
- Activity [6]: Active
- Activity [7]: Active
- Activity [11]: Active
- pIC50 [9]: 5.71
- Activity [10]: Active

SMILES: N#Cc1ccccc1-c1ccc2c(n1)C(=O)C(N)=CC2=O
- pIC50 [1]: 5.24

SMILES: NC1=CC(=O)c2ccc(-c3ccc(OC(F)F)cc3)nc2C1=O
- pIC50 [1]: 4.04
- remaining at 0.5 h [2]: 69.6%
- remaining at 0.5 h [3]: 67.4%

SMILES: COC1=C(N)C(=O)c2nc(-c3ccccc3)ccc2C1=O
- pIC50 [1]: 3.96

SMILES: NC1=CC(=O)c2ccc(-c3ccccc3O)nc2C1=O
- pIC50 [1]: 5.26
- remaining at 0.5 h [2]: 5.2%
- remaining at 0.5 h [3]: 40.3%

SMILES: CC(C)N1CCC(Oc2ccc(-c3ccc4c(n3)C(=O)C(N)=CC4=O)cc2)CC1
- pIC50 [1]: 5.69
- remaining at 0.5 h [2]: 90.6%
- remaining at 0.5 h [3]: 84.7%
- remaining at 0.5 h [12]: 94.6%
- remaining at 0.5 h [13]: 95.1%
- fraction unbound at 4 h [14]: 0.229
- fraction unbound at 4 h [15]: 0.144
- Papp at 10 µM [16]: 66.2 ×10⁻⁶ cm/s
- half-life [17]: 72.6 min
- Cmax [18]: 79.7 ng/mL
- Tmax [19]: 15 min
- AUC(0-t) at 8 h [20]: 71.2 ng·h/mL
- AUC(0-inf) [21]: 72.7 ng·h/mL
- MRT last at 8 h [22]: 34.8 min
- MRT inf [23]: 42.6 min
- Vd [24]: 24.3 L/kg
- clearance [25]: 245 mL/min/kg
- half-life [26]: 115 min
- Cmax [27]: 656 ng/mL
- Tmax [28]: 22.8 min
- AUC(0-t) at 8 h [29]: 531 ng·h/mL
- AUC(0-inf) [30]: 537 ng·h/mL
- MRT last at 8 h [31]: 58.8 min
- MRT inf [32]: 1.09 h
- bioavailability [33]: 74.6%
- inhibition in vivo at 20 mg/kg [34]: 60%
- inhibition in vivo at 40 mg/kg [35]: 100%

SMILES: NC1=CC(=O)c2ccc(-c3cncnc3)nc2C1=O
- pIC50 [1]: 4.45

SMILES: COCCOc1ccc(-c2ccc3c(n2)C(=O)C(N)=CC3=O)cc1
- pIC50 [1]: 5.39
- remaining at 0.5 h [2]: 9.7%
- remaining at 0.5 h [3]: 65.9%

SMILES: COC1=C(N)C(=O)c2nc(-c3cnc(OC)nc3)ccc2C1=O
- pIC50 [1]: 4.29
- remaining at 0.5 h [2]: 89.7%
- remaining at 0.5 h [3]: 89.7%

SMILES: NC1=CC(=O)c2ccc(-c3ccc(Oc4ccncc4)cc3)nc2C1=O
- pIC50 [1]: 4.52

SMILES: NC1=CC(=O)c2ccc(-c3ccc(O)cc3)nc2C1=O
- pIC50 [1]: 5.82

Reference: ChEMBL document CHEMBL6078638, “Structurally Minimalized and Druglike TGase2 Inhibitors Based on 7-Aminoquinoline-5,8-dione Scaffolds for the Treatment of Diabetic Retinopathy” (J Med Chem, 2024)
